According to ChEMBL document CHEMBL3885881, “DrugMatrix”:

Species: Rattus norvegicus
Assay: DrugMatrix - Regimen: Daily Repeat
Assay type: toxicity, organism-based, Sprague-Dawley
Parameters: regimen Daily Repeat, gender Male, age 6-8 weeks
Details: in vivo, po, route oral GAVAGE, vehicle .5 % CMC; for ABSOLUTE BASOPHIL / ABSOLUTE EOSINOPHIL / ABSOLUTE LYMPHOCYTE / ABSOLUTE MONOCYTE / ABSOLUTE SEGMENTED NEUTROPHIL / BASOPHIL / EOSINOPHIL / ERYTHROCYTE COUNT / HEMATOCRIT / HEMOGLOBIN / LEUKOCYTE COUNT / LYMPHOCYTE / MEAN CORPUSCULAR HEMOGLOBIN / MEAN CORPUSCULAR HEMOGLOBIN CONCENTRATION / MEAN CORPUSCULAR VOLUME / MONOCYTE / NEUTROPHIL / NUCLEATED RED BLOOD CELLS / PLATELET COUNT: tissue Blood; for ALANINE AMINOTRANSFERASE / ALBUMIN / ALKALINE PHOSPHATASE / ASPARTATE AMINOTRANSFERASE / BLOOD UREA NITROGEN / CARBON DIOXIDE / CHLORIDE / CHOLESTEROL / CREATINE PHOSPHOKINASE / CREATININE / GLUCOSE / LACTATE DEHYDROGENASE / LIPASE / PHOSPHORUS / POTASSIUM / SODIUM / TOTAL BILIRUBIN / TOTAL PROTEIN / URIC ACID: tissue Plasma
[1] = 0 mg/kg, 72 h, dose level Control, time 3 day
[2] = 0 mg/kg, 120 h, dose level Control, time 5 day
[3] = 100 mg/kg, 72 h, dose level Low, time 3 day

CO[C@H]1/C=C/O[C@@]2(C)Oc3c(C)c(O)c4c(c3C2=O)C2=NC3(CCN(CC(C)C)CC3)NC2=C(NC(=O)/C(C)=C\C=C\[C@H](C)[C@H](O)[C@@H](C)[C@@H](O)[C@@H](C)[C@H](OC(C)=O)[C@@H]1C)C4=O [RIFABUTIN]
ABSOLUTE BASOPHIL [1]: 0 CELLS/uL | ABSOLUTE EOSINOPHIL [1]: 0 CELLS/uL | ABSOLUTE LYMPHOCYTE [1]: 12269.67 CELLS/uL | ABSOLUTE MONOCYTE [1]: 160.33 CELLS/uL | ABSOLUTE SEGMENTED NEUTROPHIL [1]: 970 CELLS/uL | BASOPHIL [1]: 0% | EOSINOPHIL [1]: 0% | ERYTHROCYTE COUNT [1]: 5.76 x10E6/uL | HEMATOCRIT [1]: 36.57% | HEMOGLOBIN [1]: 14.22 G/DL | LEUKOCYTE COUNT [1]: 13.4 x10E3/uL | LYMPHOCYTE [1]: 91.67% | MEAN CORPUSCULAR HEMOGLOBIN [1]: 24.67 pg | MEAN CORPUSCULAR HEMOGLOBIN CONCENTRATION [1]: 38.85 G/DL | MEAN CORPUSCULAR VOLUME [1]: 63.52 fL | MONOCYTE [1]: 1.17% | NEUTROPHIL [1]: 7.17% | NUCLEATED RED BLOOD CELLS [1]: 0.33 /100WBC | PLATELET COUNT [1]: 1250.83 x10E3/uL | ALANINE AMINOTRANSFERASE [1]: 49.17 u/L | ALBUMIN [1]: 4.33 G/DL | ALKALINE PHOSPHATASE [1]: 378.5 u/L | ASPARTATE AMINOTRANSFERASE [1]: 82.17 u/L | BLOOD UREA NITROGEN [1]: 15 mg/dL | CARBON DIOXIDE [1]: 34.33 mmol/L | CHLORIDE [1]: 99.17 MEQ/L | CHOLESTEROL [1]: 71.17 mg/dL | CREATINE PHOSPHOKINASE [1]: 258.67 u/L | CREATININE [1]: 0.18 mg/dL | GLUCOSE [1]: 142.67 mg/dL | LACTATE DEHYDROGENASE [1]: 154.33 u/L | LIPASE [1]: 9 u/L | PHOSPHORUS [1]: 11.67 mg/dL | POTASSIUM [1]: 7.13 MEQ/L | SODIUM [1]: 142.22 MEQ/L | TOTAL BILIRUBIN [1]: 0.18 mg/dL | TOTAL PROTEIN [1]: 5.77 G/DL | URIC ACID [1]: 1.55 mg/dL | ABSOLUTE BASOPHIL [2]: 0 CELLS/uL | ABSOLUTE EOSINOPHIL [2]: 23.33 CELLS/uL | ABSOLUTE LYMPHOCYTE [2]: 14943.67 CELLS/uL | ABSOLUTE MONOCYTE [2]: 32 CELLS/uL | ABSOLUTE SEGMENTED NEUTROPHIL [2]: 1084.33 CELLS/uL | BASOPHIL [2]: 0% | EOSINOPHIL [2]: 0.17% | ERYTHROCYTE COUNT [2]: 5.71 x10E6/uL | HEMATOCRIT [2]: 35.28% | HEMOGLOBIN [2]: 14.27 G/DL | LEUKOCYTE COUNT [2]: 16.08 x10E3/uL | LYMPHOCYTE [2]: 93% | MEAN CORPUSCULAR HEMOGLOBIN [2]: 25.02 pg | MEAN CORPUSCULAR HEMOGLOBIN CONCENTRATION [2]: 40.43 G/DL | MEAN CORPUSCULAR VOLUME [2]: 61.82 fL | MONOCYTE [2]: 0.17% | NEUTROPHIL [2]: 6.67% | NUCLEATED RED BLOOD CELLS [2]: 0.33 /100WBC | PLATELET COUNT [2]: 1274 x10E3/uL | ALANINE AMINOTRANSFERASE [2]: 54.17 u/L | ALBUMIN [2]: 4.22 G/DL | ALKALINE PHOSPHATASE [2]: 373.17 u/L | ASPARTATE AMINOTRANSFERASE [2]: 81.83 u/L | BLOOD UREA NITROGEN [2]: 16.67 mg/dL | CARBON DIOXIDE [2]: 30.33 mmol/L | CHLORIDE [2]: 99 MEQ/L | CHOLESTEROL [2]: 71 mg/dL | CREATINE PHOSPHOKINASE [2]: 273.5 u/L | CREATININE [2]: 0.22 mg/dL | GLUCOSE [2]: 141.83 mg/dL | LACTATE DEHYDROGENASE [2]: 153.67 u/L | LIPASE [2]: 10.33 u/L | PHOSPHORUS [2]: 11.38 mg/dL | POTASSIUM [2]: 7.08 MEQ/L | SODIUM [2]: 142.75 MEQ/L | TOTAL BILIRUBIN [2]: 0.18 mg/dL | TOTAL PROTEIN [2]: 6.1 G/DL | URIC ACID [2]: 1.67 mg/dL | ABSOLUTE BASOPHIL [3]: 0 CELLS/uL | ABSOLUTE EOSINOPHIL [3]: 245.33 CELLS/uL | ABSOLUTE LYMPHOCYTE [3]: 18853.33 CELLS/uL | ABSOLUTE MONOCYTE [3]: 248 CELLS/uL | ABSOLUTE SEGMENTED NEUTROPHIL [3]: 1720 CELLS/uL | BASOPHIL [3]: 0% | EOSINOPHIL [3]: 1% | ERYTHROCYTE COUNT [3]: 5.43 x10E6/uL | HEMATOCRIT [3]: 36.1% | HEMOGLOBIN [3]: 14.33 G/DL | LEUKOCYTE COUNT [3]: 21.07 x10E3/uL | LYMPHOCYTE [3]: 89.33% | MEAN CORPUSCULAR HEMOGLOBIN [3]: 26.5 pg | MEAN CORPUSCULAR HEMOGLOBIN CONCENTRATION [3]: 39.7 G/DL | MEAN CORPUSCULAR VOLUME [3]: 66.67 fL | MONOCYTE [3]: 1.33% | NEUTROPHIL [3]: 8.33% | NUCLEATED RED BLOOD CELLS [3]: 0.67 /100WBC | PLATELET COUNT [3]: 1207.33 x10E3/uL | ALANINE AMINOTRANSFERASE [3]: 65.67 u/L | ALBUMIN [3]: 4.37 G/DL | ALKALINE PHOSPHATASE [3]: 375 u/L | ASPARTATE AMINOTRANSFERASE [3]: 96.33 u/L | BLOOD UREA NITROGEN [3]: 13 mg/dL | CARBON DIOXIDE [3]: 25.67 mmol/L | CHLORIDE [3]: 103 MEQ/L | CHOLESTEROL [3]: 84.33 mg/dL | CREATINE PHOSPHOKINASE [3]: 380 u/L | CREATININE [3]: 0.35 mg/dL | GLUCOSE [3]: 158 mg/dL | LACTATE DEHYDROGENASE [3]: 212.67 u/L | LIPASE [3]: 10.67 u/L | PHOSPHORUS [3]: 12.8 mg/dL | POTASSIUM [3]: 6.31 MEQ/L | SODIUM [3]: 145.97 MEQ/L | TOTAL BILIRUBIN [3]: 0.23 mg/dL | TOTAL PROTEIN [3]: 6.1 G/DL | URIC ACID [3]: 1.97 mg/dL
